The text below walks through data of patent publication US20080261891A1, “COMPOSITIONS AND METHODS FOR USING SYRINGOPEPTIN 25A AND RHAMNOLIPIDS” (Utah State University, priority 2007, published 2008).

Assay type in all cases: cell-based
One assay deals with Aeromonas caviae. Briefly: MIC, microbroth dilution method. Particulars: 48 h. How it is done: (§1) The MIC of the compounds for the organisms was determined by the microbroth dilution method, described hereafter. The microorganisms were prepared as described above and resuspended in their optimal growth media (Table 1) to ˜10^5 CFU/mL containing SP 25A at 2, 3, 4, 5, 6, 7, 8, 16, 32 and 50 μg/mL in a total volume of 550 μL. RL concentrations of 2, 3, 4, 5, 6, 7, 8, 16, 32 and 60 μg/mL in a total volume of 550 μL were tested in a 48-well plate (Corning, N.Y.). The plates were incubated at optimal growth conditions for the respective organism and monitored for an increase in OD600 after 48 h by a Perkin-Elmer (HTS 7000) plate reader (Downers Grove, Ill.). […] Negative controls (no inhibition of growth) were included using saline in the assay for each compound. The lowest concentration at which there was no increase in OD over 48 h was reported as the MIC. Each MIC was determined in replicate with three separate tests per replication. The results of the three tests were averaged for each replicate.

Another assay relates to Citrobacter fruendii. Briefly: MIC, microbroth dilution method. The note with it: 48 h. How it is done:
as §1

The next assay relates to Salmonella typhimurium. Briefly: MIC, microbroth dilution method. Particulars: 48 h. How it is done: as §1
On the technique in general: Dilution methods test growth across graded concentrations, often in twofold steps.

The subject of another assay is Eschereschia coli K12. Briefly: MIC, microbroth dilution method. The note with it: 48 h. How it is done: as §1
Assay [1] relates to Lactobacillus acidophilus. Briefly: MIC, microbroth dilution method. Particulars: 48 h. How it is done:
as §1

Another assay deals with Micrococcus luteus. Briefly: MIC, microbroth dilution method. The note with it: 48 h. How it is done: as §1
The test system of another assay is Clostridium sporogenes. As to the kind of experiment: MIC, microbroth dilution method. Particulars: 48 h. How it is done: as §1
Another assay has as its system Listeria monocytogenes. As to the kind of experiment: MIC, microbroth dilution method. The note with it: 48 h. How it is done: as §1
Assay [2] relates to Klebsiella pneumoniae subsp. Pneumoniae. Briefly: MIC, microbroth dilution method. Particulars: 48 h. How it is done:
as §1

The subject of a further assay is Streptococcus suis. As to the kind of experiment: MIC, microbroth dilution method. Particulars: 48 h. How it is done:
as §1

For assay [3], the system named is Streptococcus agalacticae. Briefly: MIC, microbroth dilution method. The note with it: 48 h. How it is done: as §1
For a further assay, the system named is Bacillus megaterium. Briefly: MIC, microbroth dilution method. Particulars: 48 h. How it is done: as §1
Another assay concerns Bacillus cereus. As to the kind of experiment: MIC, microbroth dilution method. Particulars: 48 h. How it is done: as §1
A further assay concerns Salmonella enteridis. As to the kind of experiment: MIC, microbroth dilution method. Particulars: 48 h. How it is done: as §1
For the next assay, the system named is Bacillus subtilis. Briefly: MIC, microbroth dilution method. The note with it: 48 h. How it is done: as §1
For another assay, the system named is Erwinia herbicola. As to the kind of experiment: MIC, microbroth dilution method. The note with it: 48 h. How it is done: as §1
The subject of a further assay is Flavobacterium devorans. Briefly: MIC, microbroth dilution method. Particulars: 48 h. How it is done:
as §1

In another assay the test system is Listeria innocua. As to the kind of experiment: MIC, microbroth dilution method. The note with it: 48 h. How it is done:
as §1

For the next assay, the system named is Lactobacillus plantarum. Briefly: MIC, microbroth dilution method. Particulars: 48 h. How it is done: as §1
Assay [4] concerns Lactococcus lactis subsp. Lactis. Briefly: MIC, microbroth dilution method. The note with it: 48 h. How it is done: as §1
Another assay deals with Streptococcus mutans. As to the kind of experiment: MIC, microbroth dilution method. The note with it: 48 h. How it is done: as §1
In a further assay the test system is Enterobacter aerogenes. Briefly: MIC, microbroth dilution method. The note with it: 48 h. How it is done:
as §1

For assay [5], the system named is Listeria monocytogenes EGDe. Briefly: Membrane permeabilization by PI uptake during treatment. How it is done:
Membrane permeabilization was determined through following the change in fluorescence of a dye, propidium iodide (“PI”). PI is unable to pass through the cell membrane unless the membrane has been physically compromised. Once inside the cell, the intercalation of the PI with the DNA of the cell causes the fluorescent properties of the dye to change. This change in fluorescence can be measured. Therefore, an uptake of PI indicates an increase in membrane permeabilization.
FIGS. 6A includes a graph that illustrates the amount of membrane permeabilization in response to SP 25A and RLs. Membrane permeabilization was determined by the increase in fluorescence (RFU) with PI uptake during treatment of L. monocytogenes with SP 25A and RLs over a period of 120 min.
Listeria monocytogenes EGDe was thawed and subcultured twice at 37° C. in brain heart infusion broth (BHI) (DIFCO, Franklin Lanes, N.J.). […]
Total RNA was extracted from a 1.8 mL culture immediately before treating the cells with SP 25A and RLs (T0), after 30 min (T30), and at 120 min (T120) of exposure at 37° C. Simultaneously, the cell density was measured at OD600. Membrane permeabilization was determined by measuring the PI uptake. […] Each well contained five probes for each open reading frame in the entire genome.

Structures are written as SMILES. Converted amounts (≈) assume the structure as drawn. “And” between values parts separate entries of the source, which are not always exact repeats. Equal entries are not always repeated. Where a SMILES comes first, the peptide text is derived from it. Bridges are numbered along the chain shown (N, C = ends). [ ]: non-standard residue; d: D form. The star is where a group is joined. ξ: configuration not given here. Decanoyl(3ξ-OH) = CCCCCCCC(O)CC(=O)*; Dab = NCC[CH](N)C(=O)O; Dhb = C/C=C(\N)C(=O)O

In the case of `C/C=C(\NC(=O)C(C)NC(=O)C(C)NC(=O)C(CC(C)C)NC(=O)C(NC(=O)C(C)NC(=O)C(C)NC(=O)C(NC(=O)C1CCCN1C(=O)/C(=C/C)NC(=O)CC(O)CCCCCCC)C(C)C)C(C)C)C(=O)NC(C(=O)N/C(=C\C)C(=O)NC(C)C(=O)NC(C(=O)NC(C)C(=O)NC(C)C(=O)N/C(=C\C)C(=O)NC1C(=O)NC(CO)C(=O)NC(C)C(=O)NC(C(C)C)C(=O)NC(C)C(=O)NC(CCN)C(=O)NC(CCN)C(=O)NC(Cc2ccc(O)cc2)C(=O)OC1C)C(C)C)C(C)C` (stereo not drawn) [SP 25A, syringopeptin 25A] ({Decanoyl(3ξ-OH)}-[Dhb]PVAAVLAA[Dhb]V[Dhb]AVAA[Dhb]TSAVA[Dab][Dab]Y; ester 18-C; configuration not given here), the minimum inhibitory concentration (MIC) against Aeromonas caviae was greater than 50 µg/mL; against Citrobacter fruendii, greater than 50 µg/mL; in the assay with Salmonella typhimurium, greater than 50 µg/mL; in the assay with Eschereschia coli K12 it was greater than 50 µg/mL; in assay [1], 8 µg/mL (≈ 3.33 µM); against Micrococcus luteus, 4 µg/mL (≈ 1.67 µM). The MIC against Clostridium sporogenes is 4 µg/mL (≈ 1.67 µM); against Listeria monocytogenes, 3 µg/mL (≈ 1.25 µM); in [2] it was greater than 50 µg/mL; in the assay with Streptococcus suis, 4 µg/mL (≈ 1.67 µM); in [3], 8 µg/mL (≈ 3.33 µM); in the assay on Bacillus megaterium, 3 µg/mL (≈ 1.25 µM). The minimal inhibitory concentration (MIC) was 4 µg/mL (≈ 1.67 µM) against Bacillus cereus; greater than 50 µg/mL against Salmonella enteridis; 4 µg/mL (≈ 1.67 µM) in the assay with Bacillus subtilis; greater than 50 µg/mL against Erwinia herbicola; 4 µg/mL (≈ 1.67 µM) against Flavobacterium devorans; 3 µg/mL (≈ 1.25 µM) in the assay on Listeria innocua. Further, the MIC in the assay with Lactobacillus plantarum is 16 µg/mL (≈ 6.67 µM); in assay [4], 4 µg/mL (≈ 1.67 µM); against Streptococcus mutans, 4 µg/mL (≈ 1.67 µM); with Enterobacter aerogenes it was greater than 50 µg/mL. Also, the “increase in membrane permeabilization (PI uptake)” value in assay [5] (L. monocytogenes EGDe, 3 μg/mL SP 25A, after 30 min) is ~2% and 2.6%. Further, the “PI uptake (membrane permeabilization)” value in [5] (L. monocytogenes, sub-MIC doses, over 120 min) is given as “did not”.

In general, MIC refers to the least concentration at which growth counts as inhibited. Higher therefore signals a less susceptible organism.
